In ChEMBL document CHEMBL1201862, “PubChem BioAssay data set” (2004) one finds AC50, IC50 and EC50 data, which are given here for 5 molecules.

One assay concerns HeLa. The assay can be described thus: viability loss in HeLa cells – cell-based, ATP luminescence, cherry-pick samples, cytotoxicity control, dose response (AID 687004). The class given is functional. To be noted: Homo sapiens.
For another assay, the system named is HEK293. The assay can be described thus: viability loss in HEK293T cells – cell-based, ATP luminescence, cherry-pick samples, cytotoxicity control, dose response (AID 687005).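 Also: cells exposed to compound for 48 hours.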 It counts as functional. To be noted: Homo sapiens.
Assay [1] in a line: HEK293 Cytotoxicity Assay Measured in Cell-Based System Using Plate Reader - 7071-01_Inhibitor_Dose_CherryPick_Activity_Set2. It counts as functional.
The nature of assay [2]: loss of viability in HepG2 cells – cell-based, CellTiter-Glo, cherry-picked, cytotoxicity control for Shn3 inhibitor project, dose response (AID 624134). The class given is functional. On the technique in general: In ATP-based viability assays light output follows the ATP content of the culture.
Assay [3] can be described thus: non-specific 3'UTR reporter inhibition in Clone20-Shn3RL – cell-based, Renilla luciferase, cherry-picked, counter-screen for Shn3 inhibitor project, dose response (AID 624133). The class given is functional.
Assay [4] deals with COUP transcription factor 2 (Homo sapiens, UniProt P24468). Description: Luminescence-based cell-based high throughput dose response assay to identify inhibitors of COUP-TFII (NR2F2). It counts as functional.
Chain of COUP transcription factor 2 (P24468 whole entry): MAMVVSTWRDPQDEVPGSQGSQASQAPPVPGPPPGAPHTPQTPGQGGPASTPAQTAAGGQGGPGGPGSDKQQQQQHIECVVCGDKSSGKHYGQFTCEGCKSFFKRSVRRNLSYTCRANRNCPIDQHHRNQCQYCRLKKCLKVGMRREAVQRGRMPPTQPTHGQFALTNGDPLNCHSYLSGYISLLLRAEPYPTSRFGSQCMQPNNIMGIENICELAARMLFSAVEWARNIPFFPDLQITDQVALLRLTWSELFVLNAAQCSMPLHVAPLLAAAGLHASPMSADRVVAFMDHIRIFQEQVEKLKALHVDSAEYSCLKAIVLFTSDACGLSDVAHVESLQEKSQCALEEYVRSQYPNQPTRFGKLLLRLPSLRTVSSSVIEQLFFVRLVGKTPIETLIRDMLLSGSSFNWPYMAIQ
Assay [5] can be described thus: reduction of Shn3 3'UTR-driven luciferase in osteoblasts – cell-based, Clone20 osteoblasts, firefly luciferase, cherry-picked, dose response (AID 624132).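 Also: firefly luciferase luminescence from reporter carrying the Shn3 3'UTR in osteoblasts.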 It counts as functional.
Assay [6] in a line: OVCAR-3 cell viability loss – plate reader, dry powder samples, PAX8 inhibitor project, dose response (AID 743044). It counts as functional, cell-based.
Assay [7] is described as follows: IGROV1 cell killing – plate reader, dry powder samples, PAX8 inhibitor project, dose response (AID 743043). It counts as functional, cell-based. As to conditions: IGROV-1.
A short description of assay [8]: OVCAR8 cell viability loss – plate reader, dry powder samples, PAX8 project, dose response (AID 743197). The class given is functional, cell-based. As to conditions: OVCAR-8.
For a further assay, the target named is Paired box protein Pax-8 (Homo sapiens, UniProt Q06710). Description: PAX8 transcriptional activity inhibition in RMG-I – RMG-I cells, luciferase, cherry-pick, dose response (AID 687027).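 Also: luciferase reporter driven by Pax8 target thyroperoxidase promoter measured by SteadyGlo luminescence.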 It counts as functional, cell-based.
Chain of Paired box protein Pax-8 (Q06710 whole entry): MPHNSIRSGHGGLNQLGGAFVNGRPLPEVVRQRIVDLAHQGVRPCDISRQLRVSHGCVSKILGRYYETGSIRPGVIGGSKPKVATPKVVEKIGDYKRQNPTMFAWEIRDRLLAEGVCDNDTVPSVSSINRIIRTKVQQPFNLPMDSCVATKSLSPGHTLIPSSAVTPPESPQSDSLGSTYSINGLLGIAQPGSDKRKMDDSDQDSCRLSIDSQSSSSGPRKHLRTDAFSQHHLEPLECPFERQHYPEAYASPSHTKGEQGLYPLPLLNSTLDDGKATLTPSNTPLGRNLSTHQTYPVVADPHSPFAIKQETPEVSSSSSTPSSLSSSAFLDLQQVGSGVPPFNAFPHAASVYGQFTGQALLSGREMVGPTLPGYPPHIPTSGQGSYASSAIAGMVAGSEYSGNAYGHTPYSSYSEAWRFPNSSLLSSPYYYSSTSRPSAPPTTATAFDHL
A short description of assay [9]: general cell-killing toxicity readout – plate reader, dry powder samples, cytotoxicity control for PAX8 inhibitor project, dose response (AID 743021). The class given is functional, cell-based.
Assay [10] deals with T1, Sentrin-specific protease 8 (Homo sapiens, UniProt Q96LD8).
T1 sequence (Q96LD8 whole entry): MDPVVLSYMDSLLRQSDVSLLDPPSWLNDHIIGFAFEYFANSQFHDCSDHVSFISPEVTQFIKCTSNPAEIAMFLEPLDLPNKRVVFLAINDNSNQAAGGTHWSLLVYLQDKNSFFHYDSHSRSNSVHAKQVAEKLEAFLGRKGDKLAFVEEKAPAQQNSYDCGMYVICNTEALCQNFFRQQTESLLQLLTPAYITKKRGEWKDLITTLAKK
It counts as functional.

Assay [11] addresses T2, Sentrin-specific protease 7 (Homo sapiens, UniProt Q9BQF6).
T2 sequence (Q9BQF6 whole entry): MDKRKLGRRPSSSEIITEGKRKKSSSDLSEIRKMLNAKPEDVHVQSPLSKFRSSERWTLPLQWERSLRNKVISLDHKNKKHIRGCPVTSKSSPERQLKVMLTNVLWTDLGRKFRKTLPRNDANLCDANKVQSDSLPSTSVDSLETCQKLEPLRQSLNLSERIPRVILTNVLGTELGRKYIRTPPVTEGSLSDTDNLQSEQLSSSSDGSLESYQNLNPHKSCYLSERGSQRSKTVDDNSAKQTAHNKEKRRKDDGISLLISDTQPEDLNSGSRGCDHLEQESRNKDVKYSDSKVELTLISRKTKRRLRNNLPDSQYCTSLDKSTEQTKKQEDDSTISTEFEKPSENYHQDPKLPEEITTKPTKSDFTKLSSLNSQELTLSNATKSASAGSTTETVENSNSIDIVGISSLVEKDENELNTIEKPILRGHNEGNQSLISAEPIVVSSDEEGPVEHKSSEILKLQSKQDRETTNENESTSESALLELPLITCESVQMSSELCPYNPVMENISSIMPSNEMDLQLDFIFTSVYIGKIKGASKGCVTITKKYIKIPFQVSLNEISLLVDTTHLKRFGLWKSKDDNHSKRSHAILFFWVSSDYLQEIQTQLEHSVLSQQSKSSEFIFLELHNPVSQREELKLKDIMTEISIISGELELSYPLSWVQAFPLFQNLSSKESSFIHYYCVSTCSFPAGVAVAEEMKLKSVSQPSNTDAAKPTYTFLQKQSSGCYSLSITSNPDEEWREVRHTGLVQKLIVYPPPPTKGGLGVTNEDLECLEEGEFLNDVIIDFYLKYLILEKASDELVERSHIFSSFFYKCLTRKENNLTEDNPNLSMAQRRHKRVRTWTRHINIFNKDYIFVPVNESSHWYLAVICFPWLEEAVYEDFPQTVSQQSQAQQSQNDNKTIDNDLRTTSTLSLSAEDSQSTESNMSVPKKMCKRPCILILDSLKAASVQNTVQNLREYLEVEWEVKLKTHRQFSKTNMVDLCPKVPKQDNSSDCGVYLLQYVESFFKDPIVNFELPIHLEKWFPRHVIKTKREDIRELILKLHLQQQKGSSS
It counts as functional.

Assay [12] concerns the target T3, Oxysterols receptor LXR-beta (Homo sapiens, UniProt P55055).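 Also: agonist activity at LXR measured by a cell-based luminescence readout across a dose range, run as a counterscreen for daf-12 agonists; HEK293 cells with Gal4-LXR fusion and GAL4-driven luciferase reporter; potency for activation of Gal4-LXR reporter so compounds are agonists.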
T3 sequence (P55055 whole entry): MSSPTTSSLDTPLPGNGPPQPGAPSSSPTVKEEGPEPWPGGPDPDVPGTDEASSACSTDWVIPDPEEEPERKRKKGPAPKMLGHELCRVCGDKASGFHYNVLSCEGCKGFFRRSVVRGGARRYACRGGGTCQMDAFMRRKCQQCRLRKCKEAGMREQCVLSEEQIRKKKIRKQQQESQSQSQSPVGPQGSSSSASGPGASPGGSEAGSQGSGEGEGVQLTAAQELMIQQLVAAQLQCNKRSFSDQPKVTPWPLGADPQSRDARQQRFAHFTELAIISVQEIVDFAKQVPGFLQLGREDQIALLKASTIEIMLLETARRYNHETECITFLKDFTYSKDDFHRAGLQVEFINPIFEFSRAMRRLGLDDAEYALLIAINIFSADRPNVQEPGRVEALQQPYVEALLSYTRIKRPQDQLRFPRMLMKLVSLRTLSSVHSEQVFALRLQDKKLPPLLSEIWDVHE
It counts as functional, cell-based.

For a further assay, the system named is Streptococcus. Description: GAS UMAA2166 growth inhibition – luminescence, BacTiterGlo, counter-screen for streptokinase expression inhibitor project, dose response (AID 1915).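 Also: potency for reduction of bacterial viability or growth.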 The class given is functional, organism-based. For orientation: The purpose of a counterscreen is to sort out artefacts and off-target activity.
Assay [13] addresses T4, Sentrin-specific protease 6 (Homo sapiens, UniProt Q9GZR1).
T4 sequence (Q9GZR1 whole entry): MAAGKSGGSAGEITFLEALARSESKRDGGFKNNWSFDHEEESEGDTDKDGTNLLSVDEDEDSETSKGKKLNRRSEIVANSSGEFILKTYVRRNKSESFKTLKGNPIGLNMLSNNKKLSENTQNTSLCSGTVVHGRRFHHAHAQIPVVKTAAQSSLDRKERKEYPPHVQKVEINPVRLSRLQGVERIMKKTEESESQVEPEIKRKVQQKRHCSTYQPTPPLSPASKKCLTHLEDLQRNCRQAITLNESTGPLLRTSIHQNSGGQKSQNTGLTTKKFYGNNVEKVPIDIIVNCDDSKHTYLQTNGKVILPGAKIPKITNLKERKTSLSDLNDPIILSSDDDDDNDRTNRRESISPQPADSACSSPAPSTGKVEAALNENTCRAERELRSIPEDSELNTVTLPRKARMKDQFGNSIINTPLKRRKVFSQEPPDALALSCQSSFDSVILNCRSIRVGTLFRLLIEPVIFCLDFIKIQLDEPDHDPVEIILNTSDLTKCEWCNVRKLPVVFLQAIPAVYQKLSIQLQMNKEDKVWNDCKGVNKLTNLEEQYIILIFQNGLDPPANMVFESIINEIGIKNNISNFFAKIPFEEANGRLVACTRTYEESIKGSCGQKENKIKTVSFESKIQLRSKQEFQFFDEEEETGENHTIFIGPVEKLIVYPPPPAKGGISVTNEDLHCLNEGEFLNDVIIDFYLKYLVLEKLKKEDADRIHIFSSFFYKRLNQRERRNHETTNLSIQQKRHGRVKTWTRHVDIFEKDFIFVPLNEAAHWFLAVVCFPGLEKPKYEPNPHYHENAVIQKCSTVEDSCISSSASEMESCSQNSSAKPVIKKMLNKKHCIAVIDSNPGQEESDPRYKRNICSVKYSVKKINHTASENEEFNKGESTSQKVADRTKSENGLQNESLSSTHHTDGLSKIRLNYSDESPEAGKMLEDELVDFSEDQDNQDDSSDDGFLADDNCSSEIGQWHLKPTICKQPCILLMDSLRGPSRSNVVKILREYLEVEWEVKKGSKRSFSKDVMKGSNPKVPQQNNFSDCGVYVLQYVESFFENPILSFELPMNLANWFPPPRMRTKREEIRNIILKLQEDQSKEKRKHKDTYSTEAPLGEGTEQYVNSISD
It counts as functional.

The target of the next assay is T5, Caspase-3 (Homo sapiens, UniProt P42574).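 Also: Dose-response selectivity test against caspase-3 for candidate inhibitors of sentrin-specific proteases (SENPs).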
T5 sequence (P42574 whole entry): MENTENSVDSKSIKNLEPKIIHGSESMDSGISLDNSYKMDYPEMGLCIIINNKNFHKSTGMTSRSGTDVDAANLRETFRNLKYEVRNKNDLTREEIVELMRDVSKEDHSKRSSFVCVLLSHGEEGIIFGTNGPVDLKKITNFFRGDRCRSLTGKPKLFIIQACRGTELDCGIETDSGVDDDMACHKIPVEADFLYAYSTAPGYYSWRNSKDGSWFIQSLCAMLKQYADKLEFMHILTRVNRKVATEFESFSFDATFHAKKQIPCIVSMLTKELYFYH
It counts as functional.

Assay [14] relates to Streptococcus sp. 'group A'. The assay can be described thus: Streptococcus pyogenes SK(-)GAS viability under kanamycin – luminescence, BacTiterGlo, confirmation, counter-screen for streptokinase expression inhibitor project, dose response (AID 1900). The class given is functional, organism-based.
The target in a further assay is T6, Streptokinase A (Streptococcus pyogenes serotype M1, UniProt P10520).
T6 sequence (P10520 whole entry): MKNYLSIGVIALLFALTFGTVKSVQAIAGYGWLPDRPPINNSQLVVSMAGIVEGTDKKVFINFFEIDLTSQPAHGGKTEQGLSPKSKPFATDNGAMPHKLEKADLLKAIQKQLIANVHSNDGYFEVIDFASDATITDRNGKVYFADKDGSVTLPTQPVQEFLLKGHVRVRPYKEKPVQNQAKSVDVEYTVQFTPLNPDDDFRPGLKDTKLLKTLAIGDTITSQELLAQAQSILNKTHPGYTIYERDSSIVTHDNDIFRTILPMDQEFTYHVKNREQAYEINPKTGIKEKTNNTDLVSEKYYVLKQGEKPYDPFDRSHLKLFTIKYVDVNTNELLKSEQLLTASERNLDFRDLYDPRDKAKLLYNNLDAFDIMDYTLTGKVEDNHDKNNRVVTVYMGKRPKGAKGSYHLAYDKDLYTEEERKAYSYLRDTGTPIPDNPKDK
The assay can be described thus: viability-normalized secreted streptokinase activity reduction – plasminogen activation absorbance, OD405, dose response (AID 1914).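 Also: secreted streptokinase activity via plasminogen activation per viability signal from cell pellet.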 The class given is functional, Streptococcus pyogenes M1 GAS.

Calls of active or inactive are those of the source. Bounds are passed on as bounds.

`C[C@@H]1CN([C@H](C)CO)S(=O)(=O)c2ccc(C#Cc3ccc(F)cc3)cc2O[C@H]1CN(C)C(=O)NC1CCCC1`: the half-maximal activity concentration (AC50) (commonly the concentration at which the activity in the assay is half-maximal) with HeLa is 34.7 µM (active); with HEK293, 4.91 µM (active); in assay [1], 4.91 µM (active).

For `OC[C@@H]1CN(Cc2ccc(-c3ccccc3)cc2)C[C@H](n2cnc3c(NCc4ccc(F)cc4)ncnc32)O1`, the AC50 was 64.5 µM (active) in assay [2], 4.44 µM (active) in assay [3] and 1.58 µM (active) in assay [5]. Moreover, the 50% inhibitory concentration (IC50) (as a rule, the point on the concentration scale where inhibition reaches its midpoint) in [4] was 8.22 µM (active).

For `COc1cccc(S(=O)(=O)Nc2ccc3c(c2)[C@@H]2C[C@@H](CC(=O)NCc4cccc(F)c4)O[C@H](CO)[C@@H]2O3)c1`, the AC50 (in the assay with HEK293; in assay [1]) was 27.7 µM (active) throughout.

For `C[C@@H]1CCCCO[C@H](CN(C)Cc2ccc(C(F)(F)F)cc2)[C@@H](C)CN([C@@H](C)CO)C(=O)c2cc(NC(=O)c3ccccc3)ccc2O1`, the AC50 is 10.8 µM (active) in assay [6]; 26.2 µM (active) in [7]; 21.5 µM (active) in assay [8]; 6.57 µM (active) on Paired box protein Pax-8; 52.2 µM (active) in [9].

With `O=c1c2cc(-c3ccccc3)sc2nc2n1CCC2`, the concentration for half-maximal inhibition (IC50) in assay [10] was 10.9 µM (active); in [11], 6.17 µM (active); in [13] it was 20.8 µM (active); on Caspase-3 it was 5.94 µM (active). The EC50 (usually the concentration that produces a half-maximal response) is > 67.5 µM (inactive) in assay [12], > 150 µM (not active) with Streptococcus, 11.3 µM (active) in assay [14] and > 150 µM (not active) on Streptokinase A.
